Experimental data taken from publication PMC5218480 (PLoS ONE, 2017).

Tested on: MV-4-11 cells
Assay: Gene expression microarray analysis (Affymetrix PrimeView) and GSEA
Type: cell-based, human
Set-up: RFU PODN (11730768_x_at) / Fold change /veh PODN (11730768_x_at) / RFU LINC00158 (11744669_a_at) / Fold change /veh LINC00158 (11744669_a_at) / RFU DUSP10 (11751237_a_at) / Fold change /veh DUSP10 (11751237_a_at) / RFU ID3 (11757404_x_at) / Fold change /veh ID3 (11757404_x_at) / RFU PLEKHG5 (11737974_s_at) / Fold change /veh PLEKHG5 (11737974_s_at) / RFU LRRC4B (11730491_at) / Fold change /veh LRRC4B (11730491_at) / RFU GIMAP4 (11747438_a_at) / Fold change /veh GIMAP4 (11747438_a_at) / RFU KRT8 (11758183_x_at) / Fold change /veh KRT8 (11758183_x_at) / RFU CNN1 (11734310_a_at) / Fold change /veh CNN1 (11734310_a_at) / RFU VPS37D (11726825_at) / Fold change /veh VPS37D (11726825_at) / RFU C10orf10 (11716522_x_at) / Fold change /veh C10orf10 (11716522_x_at) / RFU KIR2DL2 /// KIR2DL4 /// KIR2DL5A /// KIR2DL5B /// KIR2DS1 /// KIR2DS2 /// KIR2DS3 /// KIR2DS4 /// KIR3DL3 /// KIR3DL3 /// KIR3DS1 (11738374_at) / Fold change /veh KIR2DL2 /// KIR2DL4 /// KIR2DL5A /// KIR2DL5B /// KIR2DS1 /// KIR2DS2 /// KIR2DS3 /// KIR2DS4 /// KIR3DL3 /// KIR3DL3 /// KIR3DS1 (11738374_at) / RFU C1QL1 (11718748_at) / Fold change /veh C1QL1 (11718748_at) / RFU TMPRSS4 (11747572_a_at) / Fold change /veh TMPRSS4 (11747572_a_at) / RFU HAMP (11756126_x_at) / Fold change /veh HAMP (11756126_x_at) / RFU RNFT2 (11725882_a_at) / Fold change /veh RNFT2 (11725882_a_at) / RFU NR4A2 (11747474_a_at) / Fold change /veh NR4A2 (11747474_a_at) / RFU ABCC12 (11746883_a_at) / Fold change /veh ABCC12 (11746883_a_at) / RFU TMEM136 (11760407_x_at) / Fold change /veh TMEM136 (11760407_x_at) / RFU CLDN22 /// WWC2 (11732394_at) / Fold change /veh CLDN22 /// WWC2 (11732394_at) / RFU HLA-DPB1 (11760878_x_at) / Fold change /veh HLA-DPB1 (11760878_x_at) / RFU SPINT1 (11716480_a_at) / Fold change /veh SPINT1 (11716480_a_at) / RFU GAP43 (11754022_s_at) / Fold change /veh GAP43 (11754022_s_at) / RFU A4GNT (11735810_at) / Fold change /veh A4GNT (11735810_at) / RFU PRB3 (11715151_x_at) / Fold change /veh PRB3 (11715151_x_at) / RFU TUBB4B (11761932_at) / Fold change /veh TUBB4B (11761932_at) / RFU CAPN14 (11732068_a_at) / Fold change /veh CAPN14 (11732068_a_at) / RFU TMCC2 (11721928_a_at) / Fold change /veh TMCC2 (11721928_a_at) / RFU IRGQ (11745062_a_at) / Fold change /veh IRGQ (11745062_a_at) / RFU FAM174B (11720279_a_at) / Fold change /veh FAM174B (11720279_a_at) / RFU TMPRSS4 (11748680_a_at) / Fold change /veh TMPRSS4 (11748680_a_at) / RFU FAM212B (11763350_a_at) / Fold change /veh FAM212B (11763350_a_at) / RFU PLEKHG5 (11743358_a_at) / Fold change /veh PLEKHG5 (11743358_a_at) / RFU ZSCAN30 (11745921_a_at) / Fold change /veh ZSCAN30 (11745921_a_at) / RFU CMKLR1 (11741424_a_at) / Fold change /veh CMKLR1 (11741424_a_at) / RFU LOC101060620 /// MAPK8IP1 (11723275_at) / Fold change /veh LOC101060620 /// MAPK8IP1 (11723275_at) / RFU SPTSSB (11747773_x_at) / Fold change /veh SPTSSB (11747773_x_at) / RFU PRSS12 (11739890_at) / Fold change /veh PRSS12 (11739890_at) / RFU BIN1 (11741810_x_at) / Fold change /veh BIN1 (11741810_x_at) / RFU WNT11 (11732464_a_at) / Fold change /veh WNT11 (11732464_a_at) / RFU C10orf10 (11716521_a_at) / Fold change /veh C10orf10 (11716521_a_at) / RFU C5orf56 (11738089_at) / Fold change /veh C5orf56 (11738089_at) / RFU CYB561 (11721691_x_at) / Fold change /veh CYB561 (11721691_x_at) / RFU ANKRD19P (11752326_a_at) / Fold change /veh ANKRD19P (11752326_a_at) / RFU OR2T12 /// OR2T33 /// OR2T8 (11738714_s_at) / Fold change /veh OR2T12 /// OR2T33 /// OR2T8 (11738714_s_at) / RFU VCAN (11748164_a_at) / Fold change /veh VCAN (11748164_a_at) / RFU JSRP1 (11732532_at) / Fold change /veh JSRP1 (11732532_at) / RFU KRTAP10-11 (11738290_x_at) / Fold change /veh KRTAP10-11 (11738290_x_at) / RFU MYO3A (11730013_a_at) / Fold change /veh MYO3A (11730013_a_at) / RFU EBF3 (11725865_a_at) / Fold change /veh EBF3 (11725865_a_at) / RFU CAMK2N1 (11719241_x_at) / Fold change /veh CAMK2N1 (11719241_x_at) / RFU C5orf56 (11738088_a_at) / Fold change /veh C5orf56 (11738088_a_at) / RFU OLFML3 (11715873_a_at) / Fold change /veh OLFML3 (11715873_a_at) / RFU LOC100653217 /// NTM (11731650_a_at) / Fold change /veh LOC100653217 /// NTM (11731650_a_at) / RFU MAPK11 (11762145_a_at) / Fold change /veh MAPK11 (11762145_a_at) / RFU FIZ1 (11724087_x_at) / Fold change /veh FIZ1 (11724087_x_at) / RFU OASL (11726364_x_at) / Fold change /veh OASL (11726364_x_at) / RFU SOX15 (11748057_x_at) / Fold change /veh SOX15 (11748057_x_at) / RFU CD79A (11719716_a_at) / Fold change /veh CD79A (11719716_a_at) / RFU HIST1H1D (11736915_at) / Fold change /veh HIST1H1D (11736915_at) / RFU CASKIN2 (11723855_a_at) / Fold change /veh CASKIN2 (11723855_a_at) / RFU LOC730098 (11760151_x_at) / Fold change /veh LOC730098 (11760151_x_at) / RFU OR4N2 (11742367_at) / Fold change /veh OR4N2 (11742367_at) / RFU PRRT2 (11749266_a_at) / Fold change /veh PRRT2 (11749266_a_at) / RFU SNX32 (11753110_a_at) / Fold change /veh SNX32 (11753110_a_at) / RFU CDHR5 (11726645_a_at) / Fold change /veh CDHR5 (11726645_a_at) / RFU RCAN1 (11760418_a_at) / Fold change /veh RCAN1 (11760418_a_at) / RFU FAM167A (11723789_a_at) / Fold change /veh FAM167A (11723789_a_at) / RFU FAM26E (11764081_at) / Fold change /veh FAM26E (11764081_at) / RFU ISYNA1 (11749810_s_at) / Fold change /veh ISYNA1 (11749810_s_at) / RFU ACY1 (11761880_at) / Fold change /veh ACY1 (11761880_at) / RFU 11764098_at / Fold change /veh 11764098_at / RFU SAMD14 (11745864_x_at) / Fold change /veh SAMD14 (11745864_x_at) / RFU NPB (11741838_a_at) / Fold change /veh NPB (11741838_a_at) / RFU TMPRSS6 (11731388_a_at) / Fold change /veh TMPRSS6 (11731388_a_at) / RFU KRTAP10-2 (11738614_at) / Fold change /veh KRTAP10-2 (11738614_at) / RFU ARHGAP8 /// PRR5-ARHGAP8 (11727945_x_at) / Fold change /veh ARHGAP8 /// PRR5-ARHGAP8 (11727945_x_at) / RFU KRTAP5-7 /// NADSYN1 (11734609_at) / Fold change /veh KRTAP5-7 /// NADSYN1 (11734609_at) / RFU RASL12 (11751679_a_at) / Fold change /veh RASL12 (11751679_a_at) / RFU CDKN2B (11736163_a_at) / Fold change /veh CDKN2B (11736163_a_at) / RFU PRF1 (11729649_at) / Fold change /veh PRF1 (11729649_at) / RFU, ZNF638 /// ZNF638-IT1 / Fold change vs veh, ZNF638 /// ZNF638-IT1 / RFU, PANK3 / Fold change vs veh, PANK3 / RFU, SH3YL1 / Fold change vs veh, SH3YL1 / RFU, ZEB2 / Fold change vs veh, ZEB2 / RFU, NRIP1 / Fold change vs veh, NRIP1 / RFU, PTTG1IP / Fold change vs veh, PTTG1IP / RFU, CAPN2 / Fold change vs veh, CAPN2 / RFU, MED14 / Fold change vs veh, MED14 / RFU, SNORA58 / Fold change vs veh, SNORA58 / RFU, C1orf63 / Fold change vs veh, C1orf63 / RFU, LRRFIP1 / Fold change vs veh, LRRFIP1 / RFU, NDUFAF7 / Fold change vs veh, NDUFAF7 / RFU, SLC12A2 / Fold change vs veh, SLC12A2 / RFU, IBTK / Fold change vs veh, IBTK / RFU, ESF1 / Fold change vs veh, ESF1 / Fold change vs veh, TMEM50B / RFU, TAOK1 / Fold change vs veh, TAOK1 / RFU, ACBD3 / Fold change vs veh, ACBD3 / RFU, TMA16 / Fold change vs veh, TMA16 / RFU, RWDD3 / Fold change vs veh, RWDD3 / RFU, BCAT1 / Fold change vs veh, BCAT1 / RFU, EDEM3 / Fold change vs veh, EDEM3 / RFU, TMEM33 / Fold change vs veh, TMEM33 / RFU, WDR75 / Fold change vs veh, WDR75 / RFU, AHCTF1 / Fold change vs veh, AHCTF1 / RFU, TFRC / Fold change vs veh, TFRC / RFU, ZDHHC17 / Fold change vs veh, ZDHHC17 / RFU, NOM1 / Fold change vs veh, NOM1 / RFU, ARL8B / Fold change vs veh, ARL8B / RFU, ZBTB11 / Fold change vs veh, ZBTB11 / RFU, TAMM41 / Fold change vs veh, TAMM41 / RFU, KIAA1704 /// LOC100996395 / Fold change vs veh, KIAA1704 /// LOC100996395 / RFU, ING1 / Fold change vs veh, ING1 / RFU, TRMT61B / Fold change vs veh, TRMT61B / RFU, FUBP3 / Fold change vs veh, FUBP3 / RFU, TP53 / Fold change vs veh, TP53 / RFU, TNKS2 / Fold change vs veh, TNKS2 / RFU, ZFP14 / Fold change vs veh, ZFP14 / RFU, ACTR2 / Fold change vs veh, ACTR2 / RFU, PPP3R1 / Fold change vs veh, PPP3R1 / RFU, PIK3R1 / Fold change vs veh, PIK3R1 / RFU, HNRNPA1 / Fold change vs veh, HNRNPA1 / RFU, RNF170 / Fold change vs veh, RNF170 / RFU, ZNF28 / Fold change vs veh, ZNF28 / RFU, RNGTT / Fold change vs veh, RNGTT / RFU, OGT / Fold change vs veh, OGT / RFU, BRD1 / Fold change vs veh, BRD1 / RFU, MARS / Fold change vs veh, MARS / RFU, ZNF655 / Fold change vs veh, ZNF655 / RFU, FAHD1 / Fold change vs veh, FAHD1 / RFU, BDP1 / Fold change vs veh, BDP1 / RFU, LRRCC1 / Fold change vs veh, LRRCC1 / RFU, ARID1A / Fold change vs veh, ARID1A / RFU, ZNF146 / Fold change vs veh, ZNF146 / RFU, ZNF330 / Fold change vs veh, ZNF330 / RFU, GPN3 / Fold change vs veh, GPN3 / RFU, C9orf123 / Fold change vs veh, C9orf123 / RFU, N4BP2L2 / Fold change vs veh, N4BP2L2 / RFU, ARFIP1 / Fold change vs veh, ARFIP1 / RFU, FAM179B / Fold change vs veh, FAM179B / RFU, BCL10 / Fold change vs veh, BCL10 / RFU, UHRF1BP1L / Fold change vs veh, UHRF1BP1L / RFU, BET1 / Fold change vs veh, BET1 / RFU, CNOT2 / Fold change vs veh, CNOT2 / RFU, ZNF268 / Fold change vs veh, ZNF268 / Fold change vs veh, ZNF507 / RFU, DGCR2 / Fold change vs veh, DGCR2 / RFU, WDSUB1 / Fold change vs veh, WDSUB1 / Fold change vs veh, HSP90B1 /// MIR3652 / RFU, ADSS / Fold change vs veh, ADSS / RFU, GK / Fold change vs veh, GK / RFU, ZNF148 / Fold change vs veh, ZNF148 / RFU, TAF9 / Fold change vs veh, TAF9 / RFU, SLC1A5 / Fold change vs veh, SLC1A5 / RFU, SLMO2 / Fold change vs veh, SLMO2 / RFU, ABCC4 / Fold change vs veh, ABCC4 / RFU, LOC101060439 /// RAP1B / Fold change vs veh, LOC101060439 /// RAP1B / RFU, RFX7 / Fold change vs veh, RFX7 / RFU, GTPBP10 / Fold change vs veh, GTPBP10 / RFU, CNEP1R1 / Fold change vs veh, CNEP1R1 / RFU, BIVM-ERCC5 /// ERCC5 / Fold change vs veh, BIVM-ERCC5 /// ERCC5 / RFU, ILF3 / Fold change vs veh, ILF3 / RFU 11762660_at / Fold change /veh 11762660_at / RFU VCAN (11757783_s_at) / Fold change /veh VCAN (11757783_s_at) / RFU DDX43 (11728927_at) / Fold change /veh DDX43 (11728927_at) / RFU KRT8 (11758188_x_at) / Fold change /veh KRT8 (11758188_x_at) / RFU NKD1 (11759106_at) / Fold change /veh NKD1 (11759106_at) / RFU SRD5A1 (11742802_a_at) / Fold change /veh SRD5A1 (11742802_a_at) / RFU TPSAB1 /// TPSB2 (11721975_s_at) / Fold change /veh TPSAB1 /// TPSB2 (11721975_s_at) / RFU GSTM3 (11746129_a_at) / Fold change /veh GSTM3 (11746129_a_at) / RFU IL23R (11737362_x_at) / Fold change /veh IL23R (11737362_x_at) / RFU TMEM51 (11727254_a_at) / Fold change /veh TMEM51 (11727254_a_at) / RFU PIWIL2 (11732686_x_at) / Fold change /veh PIWIL2 (11732686_x_at) / RFU ORM1 (11744905_x_at) / Fold change /veh ORM1 (11744905_x_at) / RFU CCDC152 (11743942_at) / Fold change /veh CCDC152 (11743942_at) / RFU ECM1 (11717891_a_at) / Fold change /veh ECM1 (11717891_a_at) / RFU IL23R (11748794_a_at) / Fold change /veh IL23R (11748794_a_at) / RFU TNFAIP8L3 (11732012_x_at) / Fold change /veh TNFAIP8L3 (11732012_x_at) / RFU MBOAT4 (11741988_at) / Fold change /veh MBOAT4 (11741988_at) / RFU 11764193_at / Fold change /veh 11764193_at / RFU TMEM53 (11763286_at) / Fold change /veh TMEM53 (11763286_at) / RFU MAGEB2 (11727129_at) / Fold change /veh MAGEB2 (11727129_at) / RFU TMEM200A (11744735_a_at) / Fold change /veh TMEM200A (11744735_a_at) / RFU CCDC152 (11751479_a_at) / Fold change /veh CCDC152 (11751479_a_at) / RFU FAM211A (11726209_a_at) / Fold change /veh FAM211A (11726209_a_at) / RFU RGS16 (11746705_a_at) / Fold change /veh RGS16 (11746705_a_at) / RFU VCAN (11755009_s_at) / Fold change /veh VCAN (11755009_s_at) / RFU RHOB (11743442_s_at) / Fold change /veh RHOB (11743442_s_at) / RFU RGS16 (11720943_a_at) / Fold change /veh RGS16 (11720943_a_at) / RFU RGS16 (11720944_at) / Fold change /veh RGS16 (11720944_at) / RFU, VPS4B / Fold change vs veh, VPS4B / RFU, CREB1 / Fold change vs veh, CREB1 / RFU, DNAJC13 / Fold change vs veh, DNAJC13 / RFU, GNAQ / Fold change vs veh, GNAQ / RFU, CDK5R1 / Fold change vs veh, CDK5R1 / RFU, ZRANB3 / Fold change vs veh, ZRANB3 / RFU, CUL4A / Fold change vs veh, CUL4A / RFU, CCNY / Fold change vs veh, CCNY / RFU, UFL1 / Fold change vs veh, UFL1 / RFU, COG3 / Fold change vs veh, COG3 / RFU, DIAPH2 / Fold change vs veh, DIAPH2 / RFU, SKA2 / Fold change vs veh, SKA2 / RFU, AFF3 / Fold change vs veh, AFF3 / RFU, LMF1 / Fold change vs veh, LMF1 / RFU, IPO11 / Fold change vs veh, IPO11 / RFU, DFFB / Fold change vs veh, DFFB / RFU, FOXP1 / Fold change vs veh, FOXP1 / RFU, CARD8 / Fold change vs veh, CARD8 / RFU, STRN3 / Fold change vs veh, STRN3 / RFU, ADK / Fold change vs veh, ADK / RFU, RASSF2 / Fold change vs veh, RASSF2 / RFU, WIPF1 / Fold change vs veh, WIPF1 / RFU, LARP1B / Fold change vs veh, LARP1B / RFU, RASA1 / Fold change vs veh, RASA1 / RFU, RB1 / Fold change vs veh, RB1 / RFU, PPFIA1 / Fold change vs veh, PPFIA1 / RFU, MAT2A / Fold change vs veh, MAT2A / RFU, CCT5 / Fold change vs veh, CCT5 / RFU, WDR92 / Fold change vs veh, WDR92 / RFU, CUX1 / Fold change vs veh, CUX1 / RFU, TTC7A / Fold change vs veh, TTC7A / RFU, TMEM135 / Fold change vs veh, TMEM135 / RFU, DEPTOR / Fold change vs veh, DEPTOR / RFU, CPM / Fold change vs veh, CPM / RFU, DNAJB6 / Fold change vs veh, DNAJB6 / RFU, CACNA2D3 / Fold change vs veh, CACNA2D3 / RFU, DTX4 / Fold change vs veh, DTX4 / RFU, TFCP2 / Fold change vs veh, TFCP2 / RFU, GMCL1 /// GMCL1P1 / Fold change vs veh, GMCL1 /// GMCL1P1 / RFU, AEBP2 / Fold change vs veh, AEBP2 / RFU, SNHG1 /// SNORD22 /// SNORD25 /// SNORD26 /// SNORD27 /// SNORD28 /// SNORD29 /// SNORD31 / Fold change vs veh, SNHG1 /// SNORD22 /// SNORD25 /// SNORD26 /// SNORD27 /// SNORD28 /// SNORD29 /// SNORD31 / Fold change (Aza/veh), C12orf56 (ProbeSet 11735607_a_at) / Fold change (ACY-1035/veh), C12orf56 (ProbeSet 11735607_a_at) / Fold change (Aza/veh), FGFR1OP (ProbeSet 11751329_s_at) / Fold change (ACY-1035/veh), FGFR1OP (ProbeSet 11751329_s_at) / Fold change (Aza/veh), VPS36 (ProbeSet 11739960_a_at) / Fold change (ACY-1035/veh), VPS36 (ProbeSet 11739960_a_at) / RFU SYPL1 (11715823_x_at) / Fold change /veh SYPL1 (11715823_x_at) / RFU IGFBP7 (11715501_s_at) / Fold change /veh IGFBP7 (11715501_s_at) / RFU REEP3 (11722064_at) / Fold change /veh REEP3 (11722064_at) / RFU IGLL1 (11728026_x_at) / Fold change /veh IGLL1 (11728026_x_at): dose or concentration left out as unconfirmed
Conditions: MV-4-11 cells, 48 hours

Nc1ncn([C@@H]2O[C@H](CO)[C@@H](O)[C@H]2O)c(=O)n1 [azacitidine]
Fold change /veh CLDN22 /// WWC2 (11732394_at): 1.14
